Assay results published in patent publication US20240343720A1, “AAK1 INHIBITOR AND USE THEREOF” (Xizang Haisco Pharmaceutical Co., Ltd., priority 2021, published 2024).

What was measured:
AAK1 = AAK1 (Homo sapiens (Human), UniProt Q2M2I8); assay: In vitro AAK1 enzyme activity assay (ADP-Glo); format: biochemical; conditions: read-out: Inhibitory activity against AAK1 IC50
Experimental: Compound stock solution (concentration: 10 mM, dissolved in DMSO) was diluted with DMSO to 0.2 mM and then diluted with DMSO in 5-fold gradient to obtain compound solutions with 10 concentrations. Subsequently, the compound solutions with different concentrations were diluted 50-fold in 1×kinase reaction buffer (containing 40 mM Tris, 20 mM MgCl2, 0.1% BSA and 0.5 mM DTT) for later use. AAK1 (Signalchem, Cat #A01-11G-10) was diluted with 1×kinase reaction buffer to 2-fold the final concentration (final concentrations: 30 nM and 28 nM). AAK1 was added to a 384-well white plate at 2 μL/well, and the compounds were then added at 1 μL/well. The plate was sealed with a plate-sealing film, centrifuged at 1000 rpm for 30 seconds and then placed at room temperature for 10 minutes. A mixed solution of ATP (Promega, Cat #V914B) and substrate Micro2 (GenScript, Cat #PE0890) was formulated at 4-fold the final concentration (for AAK1, the corresponding final concentrations of ATP: 15 μM and 5 μM, and the corresponding final concentration of Micro2: 0.1 mg/mL). To the reaction plate was added the mixed solution of ATP and the substrate at 1 μL/well. The plate was sealed with a plate-sealing film and centrifuged at 1000 rpm for 30 seconds. The reaction was carried out at room temperature for 60 minutes (AAK1). ADP-Glo (Promega, Cat #V9102) was transferred to the 384-well plate at 4 μL/well and centrifugation was carried out at 1000 rpm for 1 minute. The mixture was incubated at 25° C. for 40 minutes. A detection solution was transferred to the 384-well plate at 8 μL/well and centrifugation was carried out at 1000 rpm for 1 minute. The resulting mixture was incubated at 25° C. for 40 minutes. The RLU (Relative luminescence unit) signal values were read using a Biotek multilable microplate reader and the percent inhibition was calculated according to the following formula: [1−(LUMcompound−LUMpositive control)/(LUMnegative control−LUMpositive control)]×100. IC50 values were calculated using Graphpad 7.0 software using a four-parameter non-linear fit equation.

[1] = test system: SNL-induced mouse model of neuropathic pain; assay: Spinal nerve ligation (SNL)-induced mouse model of neuropathic pain, mechanical pain threshold (MPT); format: in vivo, C57BL/6J mice; conditions: for Time at which analgesic efficacy reached the peak after the administration / Effect on pain threshold (MPT) of mice after SNL modelling: 10 mg/kg intragastrically, single administration; for Effect on pain threshold (MPT) of mice after SNL modelling: 1, 3 and 6 hours after administration
From the text: Male C57BL/6J mice (8 weeks old) purchased from Jinan Pengyue Experimental Animal Breeding Co., Ltd. were adaptively raised for one week and then the models were established. The specific establishment method comprises the following steps: • 1) disinfecting the surgical instrument and ligature; • 2) anesthetizing the mice with isoflurane and then placing the mice on the operating table in the prone position; • 3) shaving the fur near the hip bones of the mice and preparing the skin, and making an incision of about 2 cm along the spine; • 4) isolating the fascia along the spine, performing blunt dissection of the muscles, and exposing the transverse process of L5; • 5) carefully cutting the transverse process of L5 with forceps and exposing the L5 spinal nerve; • 6) carefully isolating the L5 nerve with a glass dissecting needle, and ligating the L5 nerve with a 5-0 ligature; and • 7) suturing the muscles and skin and disinfecting same with iodophor.
The mice that were unsuccessful in modeling were eliminated the next day after modeling (marker for successful modeling: mice with their hind paws curled up). After modeling, the mice were stroked for 3 to 5 minutes every day to ensure that the animals were familiar with the experimenter, and then the mice were placed on a metal pain measuring frame for 40 to 60 minutes of adaptation. After 3 days of acclimatization, Von Frey filaments (Aesthesio®; 0.16 g, 0.4 g, 0.6 g, 1.0 g, 1.4 g and 2.0 g) were used to test the pre-administration baseline values of the animals (Ascending testing approach). Each animal was tested twice and average values were taken, with intervals of at least 5 minutes. The animals were grouped according to the baseline values (10 animals per group). After the grouping, LX-9211 (1 and 10 mg/kg), compound 3 (1 and 10 mg/kg) or vehicle (40% PEG-400+10% ethanol+15% Tween 80+35% physiological saline) were administered intragastrically. The mice were tested for the mechanical pain threshold (MPT) at 1, 3 and 6 hours after the administration. Time-MPT curve was plotted using GraphPad 8.3.0, and statistical analysis was performed.

[2] = biological target: hERG potassium ion channel (Homo sapiens (Human), UniProt Q12809); assay: Test for hERG potassium ion channel (manual whole cell patch-clamp); format: cell-based; conditions: for IC50: CHO cells stably expressing hERG, read-out: IC50 (hERG potassium channel current); for inhibition at 40 µM: human, CHO cells stably expressing hERG potassium channel, read-out: Inhibition rate at the highest concentration tested (hERG potassium channel current)
Sequence of hERG potassium ion channel (Q12809 whole entry): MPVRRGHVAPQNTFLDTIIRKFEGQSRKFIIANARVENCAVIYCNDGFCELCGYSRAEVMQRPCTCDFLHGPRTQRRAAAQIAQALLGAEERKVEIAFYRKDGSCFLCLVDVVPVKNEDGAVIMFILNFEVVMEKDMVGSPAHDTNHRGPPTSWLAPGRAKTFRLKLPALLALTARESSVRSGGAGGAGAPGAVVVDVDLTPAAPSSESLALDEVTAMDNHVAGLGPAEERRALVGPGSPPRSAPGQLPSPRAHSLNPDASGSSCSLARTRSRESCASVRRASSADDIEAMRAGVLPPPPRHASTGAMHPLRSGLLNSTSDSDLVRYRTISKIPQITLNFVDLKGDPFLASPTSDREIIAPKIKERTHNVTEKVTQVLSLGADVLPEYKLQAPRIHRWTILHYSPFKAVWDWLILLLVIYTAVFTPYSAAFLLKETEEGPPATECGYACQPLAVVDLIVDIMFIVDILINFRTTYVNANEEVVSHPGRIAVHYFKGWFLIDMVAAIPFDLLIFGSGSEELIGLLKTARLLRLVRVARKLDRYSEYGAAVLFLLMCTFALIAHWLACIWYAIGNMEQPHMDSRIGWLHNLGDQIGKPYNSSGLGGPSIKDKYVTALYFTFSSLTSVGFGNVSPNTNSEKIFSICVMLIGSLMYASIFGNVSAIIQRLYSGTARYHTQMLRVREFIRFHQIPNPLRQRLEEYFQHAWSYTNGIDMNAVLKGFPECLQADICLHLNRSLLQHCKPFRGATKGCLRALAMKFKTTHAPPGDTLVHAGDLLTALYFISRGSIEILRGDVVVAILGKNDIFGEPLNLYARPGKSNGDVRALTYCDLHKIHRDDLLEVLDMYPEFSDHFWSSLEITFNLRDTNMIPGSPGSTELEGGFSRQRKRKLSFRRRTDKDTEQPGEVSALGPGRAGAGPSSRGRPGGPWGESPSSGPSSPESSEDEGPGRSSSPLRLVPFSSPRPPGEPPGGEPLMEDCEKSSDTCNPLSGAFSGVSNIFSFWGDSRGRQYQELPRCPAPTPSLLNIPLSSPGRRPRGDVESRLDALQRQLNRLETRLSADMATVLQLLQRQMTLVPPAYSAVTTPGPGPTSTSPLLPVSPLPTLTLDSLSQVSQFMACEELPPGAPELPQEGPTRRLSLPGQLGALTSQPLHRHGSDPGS
From the text: Experimental platform: electrophysiological manual patch-clamp system
Cell line: Chinese hamster ovary (CHO) cell lines stably expressing hERG potassium ion channel
Experimental method: In CHO (Chinese Hamster Ovary) cells stably expressing hERG potassium channel, whole cell patch-clamp technique was used to record hERG potassium channel current at room temperature. The glass microelectrode was made of a glass electrode blank (BF150-86-10, Sutter) by a puller. The tip resistance after filling the liquid in the electrode was about 2-5 MΩ. The glass microelectrode can be connected to the patch-clamp amplifier by inserting the glass microelectrode into an amplifier probe. The clamping voltage and data recording were controlled and recorded by the pClamp 10 software through a computer. The sampling frequency was 10 kHz, and the filtering frequency was 2 kHz. After the whole cell records were obtained, the cells were clamped at −80 mV, and the step voltage that induced the hERG potassium current (IhERG) was depolarized from −80 mV to +20 mV for 2 s, then repolarized to −50 mV, and returned to −80 mV after 1 s. This voltage stimulation was given every 10 s, and the administration process was started after the hERG potassium current was confirmed to be stable (at least 1 minute). The compound was administered for at least 1 minute at each test concentration, and at least 2 cells (n≥2) were tested at each concentration.
Data processing: Data analysis processing was carried out by using pClamp 10, GraphPad Prism 5 and Excel software. The inhibition degree of hERG potassium current (peak value of hERG tail current induced at −50 mV) at different compound concentrations was calculated by the following formula: […]
wherein, Inhibition % represents the percentage of inhibition of hERG potassium current by the compound, and I and Io represent the amplitude of hERG potassium current after and before dosing, respectively.
Compound IC50 was calculated using GraphPad Prism 5 software by fitting according to the following equation: […]
Among the equation, X represents the Log value of the tested concentration of the test sample, Y represents the inhibition percentage at the corresponding concentration, and Bottom and Top represent the minimum and maximum inhibition percentage, respectively.

[3] = Mouse brain/blood ratio test; format: in vivo; conditions: ICR mice, i.g. (10 mg/kg); for Kp / AUC(0-t): male, mouse, po; for Kp: brain/plasma; for AUC(0-t): plasma, read-out: Plasma AUC0-t
Experimental: 5.1 Experimental animals: Male ICR mice, 20-25 g, 9 mice/compound. Purchased from Chengdu Ddossy Experimental Animals Co., Ltd.
5.2 Experimental design: on the day of the experiment, 18 ICR mice were randomly grouped according to their body weights. The animals were fasted with water available for 12 to 14 h one day before the administration, and were fed 4 h after the administration;
After intragastric administration, whole blood and brain tissue were collected at 0.5 h, 4 h and 24 h, and the whole blood was centrifuged to separate the plasma. The brain tissue was rinsed with cold physiological saline to remove the residual blood on the surface, drained out and then homogenized. Before analysis and detection, all samples were stored at −80° C. The samples were analyzed quantitatively by LC-MS/MS.

[4] = Pharmacokinetic test in beagle dogs; format: in vivo; conditions: for AUC(0-t) / clearance / Vd: male, dog, plasma; for Vd: read-out: Vdss
Experimental: Experimental animals: male beagle dogs, about 8-11 kg, 6 beagle dogs/compound, purchased from Beijing Marshall Biotechnology Co., Ltd.
Experimental method: on the day of the experiment, 12 beagle dogs were randomly grouped according to their body weights. the animals were fasted with water available for 12 to 14 h one day before the administration, and were fed 4 h after the administration; and the administration was performed according to Table 2.
Before and after the administration, 1 ml of blood was taken from the jugular veins or limb veins, and placed in an EDTAK2 centrifuge tube. Centrifugation was performed at 5000 rpm at 4° C. for 10 min, and plasma was collected. Blood sampling time points for both the LX9211 intravenous administration group and intragastric administration group include: 0 min, 5 min, 15 min, 30 min, 1 h, 2 h, 4 h, 6 h, 8 h, 10 h, 12 h, and 24 h, and blood sampling time points for both the compound 19 intravenous administration group and intragastric administration group include: 0 min, 5 min, 15 min, 30 min, 1 h, 2 h, 4 h, 6 h, 8 h, 10 h, 12 h, 24 h, and 48 h. Before analysis and detection, all samples were stored at −80° C. The samples were analysed quantitatively by LC-MS/MS.

Sequence of AAK1 (Q2M2I8 27-365): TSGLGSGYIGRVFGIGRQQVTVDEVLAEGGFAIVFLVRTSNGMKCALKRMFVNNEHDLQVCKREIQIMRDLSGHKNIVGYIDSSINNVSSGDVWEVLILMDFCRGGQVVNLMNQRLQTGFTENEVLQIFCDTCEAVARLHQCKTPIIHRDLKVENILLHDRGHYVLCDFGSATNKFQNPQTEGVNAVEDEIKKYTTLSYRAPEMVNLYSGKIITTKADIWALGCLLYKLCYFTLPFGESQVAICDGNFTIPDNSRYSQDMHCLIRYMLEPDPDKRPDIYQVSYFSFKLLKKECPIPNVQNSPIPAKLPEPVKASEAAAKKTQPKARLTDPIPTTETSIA

Structure (SMILES) | IC50 (AAK1) [nM] | Time at which analgesic efficacy reached the peak after the administration [1] [h] | Effect on pain threshold (MPT) of mice after SNL modelling [1] | Analgesic efficacy compared with LX-9211 ([1]; 10 mg/kg, at 3 and 6 hours after the administration) | IC50 [2] [nM] | inhibition at 40 µM [2] [%] | Brain tissue AUC0-t [3] [ng·h/g] | Kp [3] | AUC(0-t) [3] [ng·h/mL] | F ([4]; i.g. (3 mg/kg)) [%] | AUC(0-t) ([4]; iv, i.v. (1 mg/kg)) [ng·h/mL] | clearance ([4]; iv, i.v. (1 mg/kg)) [mL/min/kg] | Vd ([4]; iv, i.v. (1 mg/kg)) [L/kg] | AUC(0-t) ([4]; po, i.g. (3 mg/kg)) [ng·h/mL]
C=C(C)C[C@](C)(N)COc1ccc(-c2ccnc(C(F)F)c2)nc1C(F)F [Compound 3, (S)-1-((2′,6-bis(difluoromethyl)-[2,4′-bipyridin]-5-yl)oxy)-2,4-dimethylpent-4-en-2-amine] | 10.9 | 3 | effectively increased the pain threshold | better efficacy than LX-9211 | 8750 | 86.6 ± 1.77 | 36853 | 64.5 | 572 |  |  |  |  | 
COC(=O)Nc1cc(-c2ccc(OC[C@@](C)(N)CC(C)(C)F)c(C(F)F)n2)ccn1 [Compound 19, Methyl (S)-(5-((2-amino-4-fluoro-2,4-dimethylpentyl)oxy)-6-(difluoromethyl) [2,4′-bipyridin]-2′-yl)carbamate] | 37.7 |  |  |  | 24100 | 68.9 ± 1.8 |  |  |  | 113 ± 6.9 | 398 ± 94 | 39.8 ± 10 | 23.6 ± 3.8 | 1350 ± 83
CC(C)C[C@](C)(N)COc1ccc(-c2ccnc(C(F)F)c2)nc1C(F)F [LX-9211, reference compound] |  | 1 | effectively increased the pain threshold |  | 1820 | 102 ± 4.08 | 110424 | 16.6 | 6640 | 22.2 ± 8.1 | 751 ± 204 | 22.2 ± 7.7 | 9.08 ± 1.4 | 500 ± 183
